Patent publication US10071095B2, “1,2,4-triazolo [4,3-A] pyridine derivatives and their use for the treatment of neurological and psychiatric disorders” (JANSSEN PHARMACEUTICALS, INC., priority 2009, dated 2018)

Key:
human mGluR2 receptor = target: T1, human mGluR2 receptor (Homo sapiens, UniProt Q14416); experiment: [35S]GTPγS binding assay, positive allosteric modulation (GTPγS-PAM) in presence of EC20 glutamate; format: biochemical; conditions: in presence of glutamate at EC20, average pEC50 if more experiments, ‡ means tested once; for EC50: read-out: GTPγS - hR2 PAM pEC50 (converted)
T1 construct: expressed in transfected cells; host or cells: CHO cells
T1 sequence (Q14416 19-872): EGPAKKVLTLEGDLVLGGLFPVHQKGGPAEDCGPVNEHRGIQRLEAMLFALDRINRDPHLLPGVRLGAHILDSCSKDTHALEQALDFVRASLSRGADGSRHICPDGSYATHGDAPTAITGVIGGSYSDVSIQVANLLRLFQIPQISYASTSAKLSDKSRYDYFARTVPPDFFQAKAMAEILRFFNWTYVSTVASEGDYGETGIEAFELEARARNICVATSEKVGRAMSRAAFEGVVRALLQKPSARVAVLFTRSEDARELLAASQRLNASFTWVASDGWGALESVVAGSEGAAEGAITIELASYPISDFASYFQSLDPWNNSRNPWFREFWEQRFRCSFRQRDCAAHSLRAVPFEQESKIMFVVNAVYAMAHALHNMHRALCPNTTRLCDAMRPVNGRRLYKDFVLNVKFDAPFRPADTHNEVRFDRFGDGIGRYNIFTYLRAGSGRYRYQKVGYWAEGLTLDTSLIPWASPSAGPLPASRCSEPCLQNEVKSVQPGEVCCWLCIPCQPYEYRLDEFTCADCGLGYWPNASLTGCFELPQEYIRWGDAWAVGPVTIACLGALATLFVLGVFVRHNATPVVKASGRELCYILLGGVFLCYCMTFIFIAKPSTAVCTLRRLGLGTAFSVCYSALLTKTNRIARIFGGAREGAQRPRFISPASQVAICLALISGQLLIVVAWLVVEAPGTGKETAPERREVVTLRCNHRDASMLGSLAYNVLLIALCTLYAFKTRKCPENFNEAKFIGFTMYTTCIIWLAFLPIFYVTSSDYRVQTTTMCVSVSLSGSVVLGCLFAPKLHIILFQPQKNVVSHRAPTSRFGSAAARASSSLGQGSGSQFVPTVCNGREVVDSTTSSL
Procedure, shortened: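 Membranes from butyrate-stimulated CHO cells expressing human mGluR2 (7 μg protein) preincubated 30 min at 30°C with compound plus ~EC20 glutamate in HEPES pH 7.4, 100 mM NaCl, 3 mM MgCl2, 10 μM GDP, 10 μg/ml saponin. [35S]GTPγS (0.1 nM) incorporation over 30 min at 30°C measured by filtration and scintillation counting.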

[1] = tested on: PCP-induced hyperlocomotion in male NMRI mice; experiment: Phencyclidine (PCP)-induced hyperlocomotion in mice (video tracking); format: in vivo; conditions: for Mice ED50 (mg/kg) PCP-Inh., estimated ED50 (footnote a) / Mice ED50 (mg/kg) PCP-Inh.: inhibition of PCP-induced hyperlocomotion; for Mice ED50 (mg/kg) PCP-Inh., estimated ED50 (footnote a): estimated ED50 values (n = 3 per dose; 4-fold separation between doses); for Mice ED50 (mg/kg) PCP-Inh.: dose at which 50% of the tested animals show the effect
Procedure: Motor Activity (Video Tracking)
Apparatus and General Procedure
On the day of experiments, the mice were brought into the procedural room. They were housed individually and allowed to acclimate for at least a half hour prior to testing. Although the studies were conducted during the light cycle (from 8:00 to 16:00 h), the procedure room was only sparsely lit (3 to 30 LUX) to provide better contrast for the video tracking. Local lighting was used for the injection procedures. During each trial, an individual mouse was placed in an open field arena (grey PVC cylinder with a height of 40 cm and a diameter of 22.5 cm). Each arena was placed on an infrared LED (8×8 LEDs)-lit box (white PVC squared box; 40×40 cm^2; height 12.5 cm). Each mouse was placed in the center of the arena and allowed to explore freely for 30 min. After each trial, the arena was cleaned with a wet and subsequently with a dry cleaning cloth. An infrared sensitive tube camera and a white light source (in arena: 4-7 LUX) were mounted to the ceiling above the observation chamber to record and input activity to a computer. Animal behavior was recorded and analyzed using the Noldus Ethovision XT Video Tracking System (Version 3.1; Noldus, Wageningen, The Netherlands). The total distance traveled (cm) was calculated. Data were then exported to data management systems for further analysis and reporting.
Phencyclidine (PCP)-Induced Hyperlocomotion in Mice
Test compound or solvent was administered at a pre-defined time before measurement (standard: 30 min) to male NMRI mice that were challenged with phencyclidine (PCP; 5 mg/kg, s.c.) 30 min before measurement. Activity was measured for a period of 30 min.

| Structure (SMILES) | EC50 (human mGluR2 receptor) [nM] | melting point [°C] | GTPγS - hR2 PAM pEC50 (human mGluR2 receptor) | other results |
| --- | --- | --- | --- | --- |
| FC(F)(F)c1c(N2CCC(c3ccccc3)CC2)ccn2c(CCC3CC3)nnc12 [compound 123, 8-Trifluoromethyl-3-(2′-cyclopropyl)ethyl-7-(4-phenylpiperidin-1-yl)-[1,2,4]triazolo[4,3-a]pyridine] | 40.7 | 300 |  |  |
| FC(F)(F)Cc1nnc2c(Cl)c(N3CCC4(CC3)COc3ccccc34)ccn12 [compound 16, 1′-[8-Chloro-3-(2,2,2-trifluoroethyl)[1,2,4]triazolo[4,3-a]pyridin-7-yl]-spiro[1-benzofuran-3,4′-piperidine]] | 178 | 269.1 |  |  |
| Cc1c(N2CCC(c3ccccc3)CC2)ccn2c(CC3CC3)nnc12 [compound 145, 3-Cyclopropylmethyl-8-methyl-7-(4-phenyl-piperidin-1-yl)-[1,2,4]triazolo[4,3-a]pyridine] | 417 | > 300 |  |  |
| CC(C)OCc1nnc2c(C(F)(F)F)c(N3CCC(F)(c4ccccc4)CC3)ccn12 [compound 18, 7-(4-Fluoro-4-phenylpiperidin-1-yl)-3-[(1-methylethoxy)methyl]-8-(trifluoromethyl)[1,2,4]triazolo[4,3-a]pyridine] | 69.2 | 153.7 |  |  |
| FC(F)(F)Cc1nnc2c(Cl)c(N3CCC4(CC3)OCc3ccccc34)ccn12 [compound 8] | 97.7 | > 300 |  |  |
| FC(F)(F)c1c(N2CCN(c3ccccc3)C3(CC3)C2)ccn2c(CC3CC3)nnc12 [compound 121, 1′-[3-cyclopropylmethyl-8-(trifluoromethyl)[1,2,4]triazolo[4,3-a]pyridin-7-yl]-4-phenyl-4,7-diaza-spiro[2.5]octane] | 234 | 218.4 |  |  |
| Cc1c(C2CCN(c3ccc(F)cc3F)CC2)ccn2c(CC3CC3)nnc12 [compound 204, 3-Cyclopropylmethyl-7-[1-(2,4-difluoro-phenyl)-piperidin-4-yl]-8-methyl-[1,2,4]triazolo[4,3-a]pyridine] | 1350 | 283.5 |  |  |
| CC1(c2ccccn2)CCN(c2ccn3c(CC4CC4)nnc3c2C(F)(F)F)CC1 [compound 148, 8-Trifluoromethyl-3-(cyclopropylmethyl)-7-(4-methyl-4-(2-pyridinyl)-piperidin-1-yl)-1,2,4-triazolo[4,3-a]pyridine] | 363 | > 300 |  |  |
| CC1(C)CN(c2ccn3c(CC(F)(F)F)nnc3c2Cl)CCN1c1ccccc1 [compound 100, 8-Chloro-3-(2,2,2-trifluoroethyl)-7-(3,3-dimethyl-4-phenyl-piperazin-1-yl)-[1,2,4]triazolo[4,3-a]pyridine] | 309 | 260.2 |  |  |
| Brc1c(N2CCC(c3ccccc3)CC2)ccn2c(CC3CC3)nnc12 [compound 207, 8-Bromo-3-cyclopropylmethyl-7-[4-phenylpiperidin-1-yl]-[1,2,4]triazolo[4,3-a]pyridine] | 35.5 | 281.5 |  |  |
| CC(c1ccn2c(CC3CC3)nnc2c1Cl)N1CCC(c2ccccc2)CC1 (stereo not shown) [compound 255] | 166 | 182.1 |  |  |
| FC(F)(F)c1c(CN2CCC(F)(c3ccccc3)CC2)ccn2c(CC3CC3)nnc12 [compound 250, 3-(Cyclopropylmethyl)-7-[(4-fluoro-4-phenyl-1-piperidinyl)methyl]-8-(trifluoromethyl)-1,2,4-triazolo[4,3-a]pyridine] |  |  |  | ED50 ([1]; Mus musculus, read-out: Mice ED50 (mg/kg) PCP-Inh.): > 10 mg/kg |
| Fc1cccc(F)c1N1CCN(Cc2ccn3c(CC4CC4)nnc3c2Cl)CC1 [compound 282] | 204 | 180.4 |  |  |
| Fc1cccc(F)c1C1CCN(c2ccn3c(CC4CC4)nnc3c2Cl)CC1 [compound 300] |  |  | 7.24 | inhibition of PCP-induced hyperlocomotion in mice (in words) [1]: inhibited; Mice ED50 (mg/kg) PCP-Inh., estimated ED50 (footnote a) [1]: 12.6 ^a) mg/kg |
| CCc1nnc2c(C(F)(F)F)c(N3CCC(c4ccccc4)CC3)ccn12 [compound 66] |  |  | 6.94 | inhibition of PCP-induced hyperlocomotion in mice (in words) [1]: inhibited; Mice ED50 (mg/kg) PCP-Inh. [1]: 17.4 ^ mg/kg |
| FC(F)(F)c1c(N2CCC(c3ccccn3)CC2)ccn2c(CC3CC3)nnc12 [compound 78] |  |  | 6.83 | Mice ED50 (mg/kg) PCP-Inh. [1]: ≥10^ mg/kg |

| Structure (SMILES) | EC50 (human mGluR2 receptor) [nM] | melting point [°C] | GTPγS - hR2 PAM pEC50 (human mGluR2 receptor) | other results |
| --- | --- | --- | --- | --- |
| N#Cc1c(N2CCN(C3CCC(C(F)(F)F)CC3)CC2)ccn2c(CC3CC3)nnc12 (stereo not shown) [compound 44] |  |  | 6.02 | Mice ED50 (mg/kg) PCP-Inh. [1]: >40 mg/kg |
| Fc1ccccc1NC1CN(c2ccn3c(CC4CC4)nnc3c2C(F)(F)F)C1 [compound 189] |  |  | 6.4 |  |
| FC(F)(F)C1CCC(N2CCN(c3ccn4c(CC5CC5)nnc4c3Cl)CC2)CC1 (stereo not shown) [compound 223] |  |  | 6.03‡ |  |
| CCc1nnc2c(Cl)c(N3CCC4(CC3)OCc3ccccc34)ccn12 [compound 102] |  |  | 6.5 |  |
| Cc1cccnc1OC1CCN(c2ccn3c(COC(C)C)nnc3c2C(F)(F)F)CC1 [compound 162] |  |  | 6.93 |  |
| FC(F)(F)Cc1nnc2c(Cl)c(N3CCN(c4ccccc4)CC3)ccn12 [compound 101] |  |  | 6.24 |  |
| CCCc1nnc2c(Cl)c(N3CCN(c4ccc(F)cc4F)CC3)ccn12 [compound 95] |  |  | 5.93‡ |  |
| Fc1ccc(N2C[C@@H]3CN(c4ccn5c(CC6CC6)nnc5c4C(F)(F)F)C[C@@H]3C2)c(F)c1 [compound 166] |  |  | 7.22 |  |
| CC1(C)OC2(CCN(c3ccn4c(CC5CC5)nnc4c3Cl)CC2)c2ccccc21 [compound 104] |  |  | 7.7 |  |
| FC(F)(F)Cc1nnc2c(Cl)c(CN3CCC(c4ccccc4)CC3)ccn12 [compound 30] |  |  | 6.95 | inhibition of PCP-induced hyperlocomotion in mice (in words) [1]: inhibited; Mice ED50 (mg/kg) PCP-Inh., estimated ED50 (footnote a) [1]: 5 ^a) mg/kg |
| N#Cc1c(N2CCN(Cc3cccc(C(F)(F)F)c3)CC2)ccn2c(CC(F)(F)F)nnc12 [compound 60] |  |  | 6.33 |  |
| CCOCc1nnc2c(C(F)(F)F)c(N3CCC(Oc4ccccn4)CC3)ccn12 [compound 132] |  |  | 6.68 |  |
| CC1(c2ccccc2)CCN(c2ccn3c(CC4CC4)nnc3c2Cl)CC1 [compound 133] |  |  | 7.05 |  |
| CCOCc1nnc2c(C(F)(F)F)c(N3CCC(Oc4ncccc4C)CC3)ccn12 [compound 134] |  |  | 7.17 |  |
| CC(F)(F)c1nnc2c(C#N)c(N3CCC(c4ccccc4)CC3)ccn12 [compound 33] |  |  | 5.15‡ |  |
| Clc1c(N2CCN(c3ccccc3)CC2)ccn2c(CC3CC3)nnc12 [compound 99] |  |  | 6.03 |  |
